Assay results as given in patent publication US12133541B2, “Feed composition comprising hexahydro-β-acid component compounds and application thereof” (WISORIG TECHNOLOGIES PTE. LIMITED, priority 2019, dated 2024).
“Also recorded” adds a separate entry of the source. Read-outs that look alike come from different tables or passages of the source.

What was measured:
[1] = Stability testing at ambient temperature of feeds (HPLC); format: physicochemical; conditions: for Concentration (%) Day 5 / Concentration (%) Day 10: room temperature, day 0 = 100%
Text: Stability testing at ambient temperature: The samples were placed in a room-temperature environment. Samples were taken on day 5 and day 10 for HPLC analysis, and three replications were taken in parallel for each test sample.

[2] = Breeding experiment: production performance of broilers; format: in vivo, yellow broilers; conditions: 30 days; for ADFI (g/d per broiler) / ADG (g/d per broiler) / FCR: basal ration with 25 ppm of active ingredient; for ADFI (g/d per broiler) / ADG (g/d per broiler): 1-day-old yellow broilers; for FCR: feed intake/weight gain
Procedure: The experiment was conducted with single-factor randomized design. 720 1-day-old yellow broilers with a similar average body weight of 50 g, were randomly divided into 8 groups, with 6 replicates per group, equal amount of males and females and 15 yellow broilers per replicate. The chicken house and tools were sterilized before the experiment. During the experiment, the broilers were kept in separate regions in the same chicken house under the same feeding and management conditions. Basal ration mainly consisted of corn and soybean meal. During the entire process, each group was not given other antioxidants or growth promoters. The groups were control group (group 1) and test groups 2 to 8, wherein the control group was given basal ration only, while the test groups 2 to 8 were respectively given basal ration in combination with the different additives with 25 ppm of the active ingredient thereof, wherein the active ingredient was hexahydro-β-acids, or the hexahydro-β-acid compounds, or the coated substances of the hexahydro-β-acid compounds as shown in Table 4.
The experiment lasted for 30 days. The broilers were given ad libitum access to food and water, and feeds were provided twice every day. At the day when the broilers were 31-day old (after withdrawing feed for 12 hours, without withdrawing water), taking each replicate as one unit, body weight of the broilers was measured, and each of average daily feed intake (ADFI, g/d per broiler), average daily weigh gain (ADG, g/d per broiler), and feed conversion ratio (FCR) was calculated. Feed conversion ratio (FCR)=average daily feed intake/average daily weight gain

[3] = Breeding experiment: production performance of hogs; format: in vivo, Duroc×Landrace×Yorkshire cross-bred bacon-type piglets; conditions: for ADFI (g/d per piglet) / ADG (g/d per piglet) / FCR: basal ration with 25 ppm of active ingredient; for ADFI (g/d per piglet) / ADG (g/d per piglet) / FCR / animal production performance compared with the hexahydro-β-acids (in words) / change rate of feed intake compared with the control group / change rate of weight gain compared with the control group / decrease rate of feed conversion ratio compared with the control group: 14 days; for ADFI (g/d per piglet) / ADG (g/d per piglet): 67-day-old piglets; for FCR: feed intake/weight gain; for animal production performance compared with the hexahydro-β-acids (in words) / change rate of feed intake compared with the control group / change rate of weight gain compared with the control group / decrease rate of feed conversion ratio compared with the control group / average daily weight gain vs control (in words): piglets; for animal production performance compared with the hexahydro-β-acids (in words) / change rate of feed intake compared with the control group / change rate of weight gain compared with the control group / decrease rate of feed conversion ratio compared with the control group: 25 ppm; for average daily weight gain vs control (in words): difference above 5% deemed obvious
Text: 240 67-day-old Duroc×Landrace×Yorkshire cross-bred bacon-type piglets with similar body weight, were randomly divided into 8 groups, with 3 replications per group, 10 piglets per replication and equal amount of males and females. The pig pen and tools were sterilized before the experiment. During the experiment, the piglets were kept in separate regions in the same pig pen under the same feeding and management conditions. The piglets were given ad libitum access to food and water, and feeds were provided twice every day. The groups were control group (group 1) and test groups 2 to 8, wherein piglets of the control group were given basal ration only, those of the test groups 2 to 8 were respectively given basal ration in combination with different additives with 25 ppm of active ingredient thereof, wherein the active ingredient was hexahydro-β-acids, or the hexahydro-β-acid compounds, or the coated substances of the hexahydro-β-acid compounds, as shown in Table 3.
During the entire process, each test group was not given other antioxidants or growth promoters. The experiment lasted for 14 days. On the 14th day, after withdrawing feed (without withdrawing water) for 12 hours, taking each replicate as one unit, the weight of each replication piglets was measured and each of average daily feed intake (ADFI, g/d per piglet), average daily weigh gain (ADG, g/d per piglet), and feed conversion ratio (FCR) was calculated. Average daily feed intake=(Total weight of provided feed−Weight of remaining feed)/(Number of days×Amount of piglets in each replicate) Average daily weight gain=(final average body weight−initial average body weight)/number of test days Feed conversion ratio=average daily feed intake/average daily weight gain

[4] = 10 day, 1 wt %
Procedure: (§1) 50 mg of standard substance was accurately weighed out and dissolved in an appropriate amount of methanol by ultrasonication. The solution was then transferred to a 50 mL volumetric flask and diluted to volume with methanol to give a stock solution. Working solutions with concentration as 25 ppm, 125 ppm, 250 ppm, 500 ppm, and 1000 ppm were prepared respectively by the dilution of appropriate amount of the stock solution.
(§2) • Column: Symmetry C18 column (Waters; 250 mm*4.6 mm, 5 μm) • Mobile phase: 0.02% phosphoric acid:methanol=5:95 (v:v) • Wavelength: 223 nm • Column temperature: 25° C. • Injection volume: 10 μL • Flow rate: 1 mL/min
(§3) Thermal stability testing: The test samples were spread in petri dishes to form thin layers of ≤5 mm and placed in a drug stability testing chambers at 60° C. Samples were taken with 3 replications in parallel for each of test samples on day 5 and day 10 for HPLC analysis.

[5] = Thermal stability testing at 60° C. (HPLC); conditions: for Concentration (%) Day 5 / Concentration (%) Day 10: day 0 = 100%; for degradation ratio: 10-day testing period
Procedure: as §1, §2, §3

[6] = component within feed comprising 25 ppm of hexahydro-β-acids
[7] = 1% premix of hexahydro-β-acid compound
[8] = component within 1% premix of hexahydro-β-acids
[9] = component within hexahydro-β-acids
[10] = hexahydro-β-acid compound (free or coated substance)
[11] = feed comprising 25 ppm of hexahydro-β-acid compound

| Compound | stability in feeds (in words) ([1]; ambient temperature) | Concentration (%) Day 5 [1, 6] [%] | Concentration (%) Day 10 [1, 6] [%] | ADFI (g/d per broiler) [2] [g/d per broiler] | ADG (g/d per broiler) [2] [g/d per broiler] | FCR [2] | change rate of feed intake compared with the control group ([2]; broilers, 25 ppm) [%] | change rate of weight gain compared with the control group ([2]; broilers, 25 ppm) [%] | decrease rate of feed conversion ratio compared with the control group ([2]; broilers, 25 ppm) [%] | ADFI (g/d per piglet) [3] [g/d per piglet] | ADG (g/d per piglet) [3] [g/d per piglet] | FCR [3] | change rate of feed intake compared with the control group [3] [%] | change rate of weight gain compared with the control group [3] [%] | decrease rate of feed conversion ratio compared with the control group [3] [%] | Concentration (%) Day 5 [5, 7] [%] | Concentration (%) Day 10 [5, 7] [%] | Concentration (%) Day 5 [5, 8] [%] | Concentration (%) Day 10 [5, 8] [%] | Concentration (%) Day 5 [5, 9] [%] | further results |
| --- | --- | --- | --- | --- | --- | --- | --- | --- | --- | --- | --- | --- | --- | --- | --- | --- | --- | --- | --- | --- | --- |
| CC(C)CCC1=C(O)C(C(=O)C(C)C)=C(O)C(CCC(C)C)(CCC(C)C)C1=O [Hexahydro-colupulone, hexahydro-colupulone] | excellent short-term stability; also recorded: favourable stability | 53.88 | 37.69 | 49.68 | 25.19 | 1.97 | 0.26 | 8.86 | 7.94 | 894 | 403 | 2.218 | 2.40 | 12.57 | 8.99 | 99.39 | 97.39 | 97.02 | 97.56 | 96.48 | animal production performance compared with the hexahydro-β-acids (in words) [3]: improve the animal production performance effectively; average daily weight gain vs control (in words) [3]: obvious increase; degradation ratio [4]: 2.6%; Concentration (%) Day 10 [5, 9]: 90.43%; decrease in the concentration ([5]; day 10, component within 1% premix of hexahydro-β-acids): about 2.4%; decrease in the concentration ([5]; day 10, component within hexahydro-β-acids): about 10%; Concentration (%) Day 5 [5, 10]: 99.76%; Concentration (%) Day 10 [5, 10]: 99.10% |
| hexahydro-adlupulone | excellent short-term stability; also recorded: favourable stability | 60.55 | 0 | 50.06 | 24.59 | 2.04 | 1.03 | 6.27 | 4.67 | 860 | 368 | 2.340 | 1.49 | 2.79 | 3.98 | 97.24 | 95.68 | 88.97 | 88.63 | 91.48 | decrease in feed conversion ratio / feed efficiency (in words) ([2]; broilers, 25 ppm): more effective than hexahydro-β-acids; animal production performance compared with the hexahydro-β-acids (in words) [3]: improve the animal production performance effectively; average daily weight gain vs control (in words) [3]: obvious increase; degradation ratio ([5]; 1% premix of the compound): 4.3%; Concentration (%) Day 10 [5, 9]: 82.87%; Concentration (%) Day 5 [5, 10]: 98.01%; Concentration (%) Day 10 [5, 10]: 96.63% |
| hexahydro-lupulone [reference compound] | very poor stability in feeds | 63.08 | 0 | 49.13 | 23.58 | 2.08 | −0.85 | 1.90 | 2.80 | 864 | 358 | 2.413 | −1.03 | 0 | 0.98 | 92.37 | 91.21 | 89.92 | 87.62 | 91.97 | decrease of active compound in feed ([1]; ambient temperature, 10-day period, feed with 25 ppm): 95%; Concentration (%) Day 5 [1, 11]: 17.78%; Concentration (%) Day 10 [1, 11]: 4.96%; degradation ratio ([5]; 1% premix of the compound): 8.8%; degradation ratio ([5]; compound or coated substance): 7.2%; Concentration (%) Day 10 [5, 9]: 79.62%; Concentration (%) Day 5 [5, 10]: 99.10%; Concentration (%) Day 10 [5, 10]: 92.85% |
